Columns and labels:
[1] = system: Hydrochloric Acid-Induced Lesion; assay: Hydrochloric acid-induced gastric mucosal lesion, length of ulcerations; assay type: in vivo, rat; details: rats, intraduodenal, dose of SU-740 10, 35 or 60 mg/kg, 0.6 N hydrochloric acid 1 hour later; FIG. 6
Method: Seventy-two rats divided into 9 groups each consisting of 8 animals were used. A 0.2 mℓ/100 g of the sample dispersed in a 5 % gum arabic suspension was intraduodenally administered to a rat so as to make a dose of SU-740 become 10 mg, 35 mg or 60 mg per kg-body weight. β-Cyclodextrin was similarly administered at a dose corresponding to the SU-740 content in the complex obtained in Example 2. On hour later, 1 mℓ of 0.6 N hydrochloric acid was administered, and 1 hour thereafter the abdomen was opened, and the length of the ulcerations was measured to evaluate the inhibitory effect on mucosal lesions.

[2] = system: Prostaglandin (PG) Metabolic Enzyme; assay: PG metabolic enzyme activity in excised gastric mucosa after dosing (decomposition of PGE₁ as index); assay type: in vivo; details: rats, i.d., dose of SU-740 31.4 mg/kg (Complex 200.0 mg/kg)
Method: The test was carried out in accordance with the method described in M. Muramatsu et al., Biochemical Pharmacology, Vol. 33(16), p. 2629 (1984). The sample dispersed in a 1 % gum arabic suspension was intraduodenally administered to rats having been deprived of food for 24 hours so as to make a dose of SU-740 become 31.4 mg/kg. Two hours later, the gastric mucosa was excised, and a PG metabolic enzyme was extracted therefrom and analyzed with a spectrophotometer. The effect was examined taking decomposition of PGE₁ as an index.

[3] = system: Histamine-Induced Ulceration; assay: Histamine-induced ulceration, area of lesions; assay type: in vivo; details: rats, i.d., dose of SU-740 31.4 mg/kg (Complex 200.0 mg/kg); histamine 300 mg/kg i.p. 3 hours later, lesion area 4 hours thereafter
Method: The test was carried out in accordance with the method described in M. Muramatsu et al., Arzeneim. Forsch., Vol. 40(I)1, p. 49 (1990). The sample dispersed in a 1 % gum arabic suspension was intraduodenally administrated to rats having been deprived of food for 24 hours so as to make a dose of SU-740 become 31.4 mg/kg. Three hours later, 300 mg/kg of histamine was intraperitoneally administered, and 4 hours thereafter the abdomen was opened, and the area of lesions was measured to evaluate the inhibitory effect on mucosal lesions.

Gastric Acid Secretion = assay: Gastric acid secretion in conscious dog with chronic fistula, stimulated by 2-deoxy-D-glucose; assay type: in vivo; details: p.o., table doses: SU-740 200.0 mg/kg, Complex 200.0 (31.4 as SU-740) mg/kg
Method: The test was carried out in accordance with the method described in Gastroenterology, Vol. 85, p. 900 (1983). A dog to which a fistula had been chronically fitted was deprived of food for 20 hours. […] One hour later, 300 mg/kg of 2-deoxy-D-glucose was intravenously injected. Two hours from the injection, the gastric acid secretion was measured.

[4] = Test of absorbability after oral capsule administration (cross-over, Latin square); assay type: in vivo; details: beagles, dose of SU-740 100 mg/kg, FIG. 5
Method: The test was conducted by a cross-over testing method according to a Latin square method using 15 beagles divided into three groups each consisting of 5 test animals. Each sample was put in a capsule and orally given to the animal so as to make a dose of SU-740 become 100 mg/kg.

[5] = system: PGE₂ Content in Rat Gastric Mucosa; assay: PGE₂ content in gastric mucosa after dosing (radioimmunoassay); assay type: in vivo; details: rats, i.d., dose of SU-740 31.4 mg/kg (Complex 200.0 mg/kg)
Method: The test was carried out in accordance with the method described in M. Muramatsu et al., Life Science, Vol. 41, p. 315 (1987). The sample dispersed in a 1 % gum arabic suspension was intraduodenally administered to rats having been deprived of food for 24 hours so as to make a dose of SU -740 become 31.4 mg/kg. After 24 hours from the administration, the gastric mucosa was excised under anesthesia with ether and 2 mℓ of a 20 µM anhydrous solution of Indomethacin was added thereto, followed by homogenization. After allowing to stand for 1 hour, the homogenate was subjected to centrifugation at 3000 rpm for 10 minutes and the supernatant liquor (PG mixture) was lyophilized. The resulting PG mixture was suspended in distilled water, and extracted with methanol by means of a column (vac elute). Then the extract was lyophilized, and subjected to measurement by means of a radioimmunoassay kit.

## OC[C@H]1O[C@@H]2O[C@H]3[C@H](O)[C@@H](O)[C@@H](O[C@H]4[C@H](O)[C@@H](O)[C@@H](O[C@H]5[C@H](O)[C@@H](O)[C@@H](O[C@H]6[C@H](O)[C@@H](O)[C@@H](O[C@H]7[C@H](O)[C@@H](O)[C@@H](O[C@H]8[C@H](O)[C@@H](O)[C@@H](O[C@H]1[C@H](O)[C@H]2O)O[C@@H]8CO)O[C@@H]7CO)O[C@@H]6CO)O[C@@H]5CO)O[C@@H]4CO)O[C@@H]3CO [β-Cyclodextrin, β-cyclodextrin]
[1]
  inhibitory effect on mucosal lesions: little effect

## CC(C)=CCOc1ccc(C(=O)/C=C/c2ccc(C(C)(C)C)cc2)c(OCC(=O)O)c1 [SU-740, 4-t-butyl-2'-carboxymethoxy-4'-(3-methyl-2-butenyloxy)chalcone]
[2]; PG metabolic enzyme activity
  % of Control: 81.3%
[2]; gastric mucosa excised two hours later
  PG Metabolic Enzyme Activity (nmol/mg protein/min): 0.61±0.05 nmol/mg protein/min
[3]
  Inhibitory Ratio (%): 66.7%
Gastric Acid Secretion; gastric acid secretion
  Inhibitory Ratio (%): 20.9%
Gastric Acid Secretion; 2-deoxy-D-glucose 300 mg/kg i.v. one hour later
  Gastric Acid Secretion (mEq/1 hr): 12.1±2.1 mEq/1 hr
[4]
  absorbability: scarcely absorbed
[5]; Rattus norvegicus, intraduodenal, PGE₂ content, read-out: % of Control
  activity at 31.4 mg/kg: 396%
[5]; gastric mucosa 24 hours after administration
  PGE₂ Content (pg/g wet weight): 309.1±57.0 pg/g wet weight
